What was measured:
Assay type in all cases: in vivo, humans
[1] = Elimination and mass balance of radioactivity in urine and feces; conditions: human
Method: (§1) The study was a single-center, open-label, and non-randomized study with two distinct elements: a run-in phase to establish a more defined dietary background of dietary flavanols and procyanidins and the subsequent ^14C-EC ADME study (Fig. 1B). Participants (n = 12) were enrolled in the run-in phase (day –17 to day –4) and asked to supplement their daily diet for 14 days with a commercially available flavanol-containing cocoa-based drink (250 mg cocoa flavanols; 40 mg of EC). This was followed by a 4-day period (day –4 to 0) of a low-flavanol diet. One day (study day -1) prior to the initialization of the ^14C-EC ADME study, all eligible participants were accommodated under controlled conditions at a metabolic research facility (Covance Clinical Pharmacology Inc., Wisconsin) until completion of the study. Based on the compliance of the first part of the study, 8 participants were selected to participate in the ^14C-EC ADME study. During the ^14C-EC ADME study (Fig. 1B.), volunteers received a low-flavanol, standardized high-fiber diet, and were encouraged to maintain an adequate level of hydration (water ad libitum). Volunteers were asked to fast for 8 h before the initiation of the study and for at least 4 h after the intake of the ^14C-EC test drink (water ad libitum). Venous blood samples were taken using Vacutainer collection tubes, containing potassium EDTA at 0 h (just prior to ^14C-EC ingestion), and at 0.25, 0.5, 1, 1.5, 2, 2.5, 3, 4, 6, 8, 10, 12, 16, 24, 36, and 48 h after test drink consumption. Plasma was obtained by whole blood centrifugation at 2000 × g for 15 min at 5 °C, separated into aliquots and stored at −80 °C until analysis. All urine and feces from the time just prior to the consumption of the test drink were collected at different time intervals for radioactivity and metabolite profiling. Clinical parameters and laboratory evaluations of participants were assessed at screening, on study day –1, and after completing the study, as detailed in Supplementary Methods.
(§2) The 50-mL drink consisted of an aqueous solution of ^14C-EC (specific activity 14.5 μCi μmol^−1) and delivered 60 mg (207 μmol) of EC and 300 μCi (660 × 10^6 dpm) of radioactivity. The drink was prepared one day before consumption to verify correctness of composition and stability. Volunteers received the ^14C-EC test drink (50 mL), followed by 3 × 50 mL of water that was used to rinse the test drink container, and 40 mL of water. The radioactivity remaining in the test drink containers was measured, and the residual radioactivity recovered from each container was subtracted from the amount administered to the corresponding volunteer.
(§3) Radioactivity in aliquots of plasma and urine was measured by liquid scintillation counting. Blood and feces were dried and oxidized by combustion using a 307 Sample Oxidizer (Packard Instrument Company, Meriden, NH) before being analyzed by liquid scintillation counting.

[2] = Metabolite profiling and pharmacokinetics in plasma (targeted HPLC-MS2); conditions: human, oral 60 mg 14C-EC
Method: as §1
Samples were processed as described previously[18] and analyzed by HPLC-MS^2 in conjunction with an on-line HPLC-radioactivity monitor as described in SI Materials and Methods. Identification of metabolites involved comparing the retention time with authentic standards and MS^2 fragmentation patterns (Supplementary Methods). Quantification of metabolites in urine was based on HPLC radioactivity peak area (limit of quantification: 10^3 dpm). Due to the low levels of radioactivity, quantification in plasma was based on targeted HPLC-MS^2 using standard curves obtained with authentic standards (Supplementary Methods).
Data are expressed as mean values ± standard error, or as otherwise specified. Pharmacokinetic parameters were calculated using non-compartmental analysis with WinNonlin (Pharsight Corporation, Version 5.2).
5-20% acetonitrile in 0.1 % formic acid. Supplementary Table S2 provides details of HPLC retention times and the m/z values that were monitored.
Supplementary Table S2. Detection of (−)-epicatechin metabolites. HPLC retention times and selected reaction monitoring ions used for the HPLC-MS analysis of (−)-epicatechin metabolites in plasma. […]
Structurally related (-)-epicatechin metabolites in humans: assessment using de novo chemically synthesized authentic standards. Free Radic Biol Med 52, 1403- […]
3 Borges, G. et al. Bioavailability of multiple components following acute ingestion of a polyphenol-rich juice drink. Mol Nutr Food Res 54 Suppl 2, S268-277, […]
4 Stalmach, A. et al. Absorption, metabolism, and excretion of green tea flavan-3-ols in humans with an ileostomy. Mol Nutr Food Res 54, 323-334,

[3] = Total [2-14C](−)-epicatechin-derived radioactivity in whole blood and plasma after oral intake; conditions: human
Method: as §1, §2, §3

[4] = all volunteers, post-consumption

Oc1cc(O)c2c(c1)O[C@H](c1ccc(O)c(O)c1)[C@H](O)C2 [^14C-EC, [2-^14C](−)-epicatechin]
Accumulated radioactivity voided in feces, of ingested 14C-EC ([1]; oral 60 mg 14C-EC): 12 ± 3% | Radioactivity in urine and feces combined, of intake ([1]; oral 60 mg 14C-EC): 95 ± 1% | Radioactivity not recovered in the collected samples ([1]; oral 60 mg 14C-EC): 5 ± 1% | Accumulated radioactivity eliminated in urine, of amount ingested ([1]; oral 60 mg 14C-EC, liquid scintillation counting, 0–48 h): 82 ± 5% | Ingested EC absorbed ([1]; oral 60 mg, n=8): 82 ± 5% | Levels of unmetabolized EC in plasma and urine [2]: below the limits of detection | Association of whole blood radioactivity with plasma vs cellular components [3]: associated, almost exclusively, with plasma | Time by which radioactivity in plasma fell below the limit of quantitation [3, 4]: ≤ 72 h | Time by which radioactivity in whole blood fell below the limit of quantitation [3, 4]: ≤ 36 h | Time after consumption at which radioactivity was detected in the circulation ([3]; oral 60 mg 14C-EC): 15 min | Total radioactivity in the circulatory system at Cmax, of the amount of 14C-EC ingested ([3]; calculated from whole blood concentration and blood volume): < 2%

— article PMC4929566, “The metabolome of [2-^14C](−)-epicatechin in humans: implications for the assessment of efficacy, safety, and mechanisms of action of polyphenolic bioactives” (Scientific Reports, 2016)
